Assay results from US9682025B2, “Combination of active agents for oral administration for improving the quality of nails” (NUTRICOS TECHNOLOGIES, priority 2013, dated 2017).

System: metalloprotease 9 (MMP-9)
Test: Basal synthesis/release of MMP-9 by normal human epidermal keratinocytes (ELISA of culture supernatants)
Type: cell-based
Conditions: NHEK; for % of basal synthesis/release of MMP-9 by keratinocytes: 24 hours incubation; for effect on the basal level of synthesis and/or release of MMP-9 (in words): doses of Table I
Protocol: This test was performed on cells cultured at 37° C., 5% CO2. The culture medium is Keratinocyte-SFM supplemented with epidermal growth factor (EGF) at 0.25 ng/ml, pituitary extract (PE) at 25 μg/ml and gentamicin at 25 μg/ml. […] At the end of this incubation, the culture supernatants were collected and stored so as to assay the amounts of MMP-9 secreted using the ELISA R&D Systems assay kit of reference DY911. The inter-group comparisons were performed using the unpaired bilateral Student's t-test.

Structure (SMILES) | % of basal synthesis/release of MMP-9 by keratinocytes (cysteine 1.2 μg/ml) [%] | % of basal synthesis/release of MMP-9 by keratinocytes (taurine 1.2 μg/ml) | effect on the basal level of synthesis and/or release of MMP-9 (in words) | % of basal synthesis/release of MMP-9 by keratinocytes (petroselinic acid 0.1 μM) [%]
N[C@@H](CS)C(=O)O [Cysteine] | −12 |  |  | 
NCCS(=O)(=O)O [Taurine] |  | +11% | reverse and moderate tendency | 
CCCCCCCCCCC/C=C\CCCCC(=O)O [Petroselinic acid, C18 delta-6-cis-octadecenoic acid] |  |  | no inhibitory activity | −12
